Target: T1, human m4 receptors (Homo sapiens, UniProt P08173)
T1 construct: expressed in transfected cells; host or cells: CHO K1 cells
Experiment: Stimulation of cyclic AMP production in pertussis toxin-treated CHO-m4 cells
Format: cell-based
Details: forskolin present
Description: Cyclic AMP Accumulation in Pertussis Toxin-Treated CHO m4 Cells. CHO K1 cells transfected with human m4 receptors were grown to near confluency in T-150 flasks using Dulbecco's Modified Eagle Medium (DMEM) containing 10% fetal bovine serum. Cells were detached with 0.05% trypsin, 0.53 mM EDTA, and were suspended in medium containing 100 ng/ml pertussis toxin. Cells were plated at 30,000 cells per well into 96 well plates. Eighteen to twenty hours later the medium was removed and the cells were washed with serum-bee medium. Attached cells were incubated at 37 C for one hour after addition of […] of serum free DMEM containing 1 mM 3-isobutyl-1-methylxanthine and 1 mM forskolin plus or minus drugs being tested. Incubations were terminated with […] per well of serum free DMEM containing 0.3% triton-X-100. After stopping incubations the plates were allowed to sit for 20 minutes to extract cAMP and samples were then diluted 2.5-fold and were assayed using the scintillation proximity assay of Amersham (Arlington Heights, Ill.).
Representative results from the M4 assay are as follows
Stimulation of cyclic AMP production in CHO-m4 cells.

T1 sequence (P08173 whole entry): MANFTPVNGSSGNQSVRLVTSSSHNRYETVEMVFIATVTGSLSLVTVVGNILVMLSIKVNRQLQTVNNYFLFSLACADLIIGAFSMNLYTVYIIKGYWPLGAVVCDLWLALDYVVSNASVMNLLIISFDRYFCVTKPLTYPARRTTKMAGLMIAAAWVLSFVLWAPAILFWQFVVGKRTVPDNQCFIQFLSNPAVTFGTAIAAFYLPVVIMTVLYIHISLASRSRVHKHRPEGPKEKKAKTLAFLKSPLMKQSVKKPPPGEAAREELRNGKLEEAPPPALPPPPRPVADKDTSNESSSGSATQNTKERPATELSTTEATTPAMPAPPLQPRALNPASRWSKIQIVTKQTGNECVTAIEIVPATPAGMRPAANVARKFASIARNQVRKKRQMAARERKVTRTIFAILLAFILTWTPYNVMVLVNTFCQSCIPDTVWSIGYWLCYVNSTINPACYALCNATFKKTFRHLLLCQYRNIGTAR

| SMILES | % Maximum Stimulation Compared to Oxotremorine-M |
| --- | --- |
| N#Cc1ccc(C(=O)NC2c3cc(N=CN4CCCC4)ccc3CC2O)cc1 (centres unmarked) [Compound 13] | <20% |
| CN(C)C=Nc1ccc2c(c1)[C@@H](NC(=O)c1sccc1Cl)[C@H](O)C2 [Compound 68] | 0% |
| O=C(NC1c2cc(N=CN3CCCC3)ccc2CC1O)c1c(F)ccc(F)c1F (centres unmarked) [Compound 29] | <20% |
| O=C(NC1c2cc(N=CN3CCCC3)ccc2CC1O)c1ccccc1C(F)(F)F (centres unmarked) [Compound 35] | 65% |
| O=C(N[C@@H]1c2cc(N=CN3CCCC3)ccc2C[C@H]1O)c1c(Cl)cccc1Cl [Compound 46] | 154% |
| O=C(NC1c2cc(N=CN3CCCC3)ccc2CC1O)C1CCCCC1 (centres unmarked) [Compound 11] | 34% |
| O=C(NC1c2cc(N=CN3CCCC3)ccc2CC1O)c1cccc2ccccc12 (centres unmarked) [Compound 15] | 76% |
| CC(=Nc1ccc2c(c1)[C@@H](NC(=O)c1ccc(Cl)c(Cl)c1)[C@H](O)C2)N(C)C [Compound 76] | 130% |
| O=C(NC1c2cc(N=CN3CCCC3)ccc2CC1O)c1ccc2ccccc2c1 (centres unmarked) [Compound 17] | 56% |
| CN(C)C=Nc1ccc2c(c1)[C@@H](NS(=O)(=O)c1ccc(Cl)c(Cl)c1)[C@H](O)C2 [Compound 72] | 4% |
| O=C(NC1c2cc(N=CN3CCCC3)ccc2CC1O)c1ccc([N+](=O)[O-])cc1Cl (centres unmarked) [Compound 20] | 69% |
| CCc1ccc(C(=O)N[C@@H]2c3cc(N=CN(C)C)ccc3C[C@H]2O)cc1 [Compound 67] | 7% |
| O=C(NC1c2cc(N=CN3CCCC3)ccc2CC1O)c1cccc(F)c1F (centres unmarked) [Compound 24] | 22% |
| O=C(NC1c2cc(N=CN3CCCC3)ccc2CC1O)c1cc(F)cc(F)c1 (centres unmarked) [Compound 23] | <20% |
| CN(C)C=Nc1ccc2c(c1)[C@@H](NC(=O)c1ccc(Cl)nc1)[C@H](O)C2 [Compound 74] | 8% |
| CCCc1ccc(C(=O)NC2c3cc(N=CN4CCCC4)ccc3CC2O)cc1 (centres unmarked) [Compound 26] | <20% |
| CN(C)C=Nc1ccc2c(c1)[C@@H](NC(=O)c1cc(C(F)(F)F)cc(C(F)(F)F)c1)[C@H](O)C2 [Compound 60] | 100% |
| CN(C)C=Nc1ccc2c(c1)[C@@H](NC(=O)c1cccc(C#N)c1)[C@H](O)C2 [Compound 61] | 39% |
| CCCCc1ccc(C(=O)N[C@@H]2c3cc(N=CN4CCCC4)ccc3C[C@H]2O)cc1 [Compound 45] | <20% |
| CCCCOc1ccc(C(=O)N[C@@H]2c3cc(N=CN(C)C)ccc3C[C@H]2O)cc1 [Compound 59] | 22% |
| CN(C)C=Nc1ccc2c(c1)[C@@H](NC(=O)C(F)(F)F)[C@H](O)C2 [Compound 66] | 0% |
| O=C(CSc1ccccc1)NC1c2cc(N=CN3CCCC3)ccc2CC1O (centres unmarked) [Compound 28] | <20% |
| CCCCc1ccc(C(=O)N[C@@H]2c3cc(N=CN(C)C)ccc3C[C@H]2O)cc1 [Compound 70] | 18% |
| O=C(NC1c2cc(N=CN3CCCC3)ccc2CC1O)c1cccc(F)c1 (centres unmarked) [Compound 30] | <20% |

| SMILES | % Maximum Stimulation Compared to Oxotremorine-M |
| --- | --- |
| O=C(NC1c2cc(N=CN3CCCC3)ccc2CC1O)c1cccs1 (centres unmarked) [Compound 21] | 23% |
| O=C(NC1c2cc(N=CN3CCCC3)ccc2CC1O)c1cc(F)c(F)c(F)c1F (centres unmarked) [Compound 40] | 96% |
| CN(C)C=Nc1ccc2c(c1)[C@@H](NC(=O)c1ccc(C(F)(F)F)cc1)[C@H](O)C2 [Compound 75] | 6% |
| Cc1cc(C)c(C(=O)NC2c3cc(N=CN4CCCC4)ccc3CC2O)c(C)c1 (centres unmarked) [Compound 27] | <20% |
| O=C(NC1c2cc(N=CN3CCCC3)ccc2CC1O)c1cccc([N+](=O)[O-])c1 (centres unmarked) [Compound 25] | 43% |
| COc1cc(OC)cc(C(=O)NC2c3cc(N=CN4CCCC4)ccc3CC2O)c1 (centres unmarked) [Compound 36] | <20% |
| O=C(NC1c2cc(N=CN3CCCC3)ccc2CC1O)c1cc(F)ccc1F (centres unmarked) [Compound 32] | <20% |
| CN(C)C=Nc1ccc2c(c1)[C@@H](NC(=O)c1cccnc1Cl)[C@H](O)C2 [Compound 73] | 11% |
| O=C(N[C@@H]1c2cc(N=CN3CCCCC3)ccc2C[C@H]1O)c1ccc(Cl)c(Cl)c1 [Compound 77] | 214% |
| Cc1cccc(C(=O)NC2c3cc(N=CN4CCCC4)ccc3CC2O)c1 (centres unmarked) [Compound 37] | 76% |
| CN(C)C=Nc1ccc2c(c1)[C@@H](NC(=O)C1CCCC1)[C@H](O)C2 [Compound 62] | 27% |
| O=C(N[C@@H]1c2cc(N=CN3CCCCC3)ccc2C[C@H]1O)c1cccc(Cl)c1Cl [Compound 88] | 52% |
| O=C(NC1c2cc(N=CN3CCCC3)ccc2CC1O)c1ccc(C(F)(F)F)cc1 (centres unmarked) [Compound 18] | 61% |
| CN(C)C=Nc1ccc2c(c1)[C@@H](NC(=O)c1cccc3ccccc13)[C@H](O)C2 [Compound 71] | 95% |
| O=C(NC1c2cc(N=CN3CCCC3)ccc2CC1O)c1ccccc1Cl (centres unmarked) [Compound 44] | 41% |
| CN(C)C=Nc1ccc2c(c1)[C@@H](NC(=O)c1cc(F)c(F)c(F)c1)[C@H](O)C2 [Compound 65] | 30% |
| O=C(N[C@@H]1c2cc(N=CN3CCCC3)ccc2C[C@H]1O)c1c(Cl)cc(Cl)cc1Cl [Compound 47] | <20% |
| CN(C)C=Nc1ccc2c(c1)[C@@H](NC(=O)c1ccc3ccccc3c1)[C@H](O)C2 [Compound 63] | 13% |
| O=C(N[C@@H]1c2cc(N=CN3CCCCC3)ccc2C[C@H]1O)c1cc(F)cc(F)c1 [Compound 98] | 73% |
| O=C(NC1c2cc(N=CN3CCCC3)ccc2CC1O)C(F)(F)F (centres unmarked) [Compound 19] | <20% |
| CN(C)C=Nc1ccc2c(c1)[C@@H](NC(=O)c1cc(F)cc(C(F)(F)F)c1)[C@H](O)C2 [Compound 64] | 52% |
| O=C(NC1c2cc(N=CN3CCCC3)ccc2CC1O)c1cccc(Cl)c1Cl (centres unmarked) [Compound 31] | 45% |
| CN(C)C=Nc1ccc2c(c1)[C@@H](NC(=O)c1cc(Cl)cc(Cl)c1)[C@H](O)C2 [Compound 58] | 74% |

— patent US6395735B2, “Pharmaceutical compounds” (Eli Lilly and Company, priority 1997, dated 2002)
